Measured values as given in ChEMBL document CHEMBL1201862, “PubChem BioAssay data set” (2004).
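Protocol summary: plate cells (96-well), add compound at 5 concentrations, incubate 48 h, interpolate endpoints linearly. GI50 marks 50% less growth.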 The source made the active and inactive calls. Cut-off read from the data, not from the text of the source: active = GI50 up to about 1.1 µM and inactive = higher.

What was measured:
Assay in all cases: NCI-60 cell line screen, 48 h
UACC-257 = system: UACC-257
NCI/ADR-RES = system: NCI/ADR-RES
SK-MEL-28 = system: SK-MEL-28
U-251 = system: U-251
SK-MEL-2 = system: SK-MEL-2
SF-295 = system: SF-295
RPMI-8226 = system: RPMI-8226
COLO 205 = system: COLO 205
CAKI-1 = system: CAKI-1
TK-10 = system: TK-10
SW-620 = system: SW-620
SF-268 = system: SF-268
A498 = system: A498
MOLT-4 = system: MOLT-4
UACC-62 = system: UACC-62
SNB-19 = system: SNB-19
LOX IMVI = system: LOX IMVI
NCI-H23 = system: NCI-H23
HCT-116 = system: HCT-116
SNB-75 = system: SNB-75

Measured: GI50

C=CCNC(=S)N/N=C1\C(=O)Nc2ccc([N+](=O)[O-])cc21
inactive: UACC-257 71 µM | NCI/ADR-RES 17.7 µM | SK-MEL-28 > 100 µM | U-251 64.3 µM | SK-MEL-2 > 100 µM | SF-295 29 µM | RPMI-8226 57.3 µM | COLO 205 92 µM | CAKI-1 14.2 µM | TK-10 26.4 µM | SW-620 82 µM | SF-268 57 µM | A498 21.1 µM | MOLT-4 16.7 µM | UACC-62 > 100 µM | SNB-19 55.7 µM | LOX IMVI 81.8 µM | NCI-H23 38.6 µM | HCT-116 24.8 µM

COC1/C=C/C(C)C(C(C)C(OC)C(C)CCC(=O)C(C)C(C/C=C/N(C)C=O)OC)OC(=O)/C=C/C=C(\C)CC(OC)CC2=CC(=O)O[C@H](C2)C(C)C(OC)CC(OC)/C=C/C(C)C(OC)C1 (stereo not given in full)
active: UACC-257 0.00819 µM | NCI/ADR-RES 0.0107 µM | SK-MEL-28 0.00875 µM | SK-MEL-2 0.00733 µM | SF-295 0.00619 µM | RPMI-8226 < 0.005 µM | SNB-75 < 0.005 µM | CAKI-1 < 0.005 µM | SW-620 0.00766 µM | SF-268 0.0336 µM | MOLT-4 < 0.005 µM | UACC-62 0.00752 µM | SNB-19 0.0149 µM | LOX IMVI < 0.005 µM | NCI-H23 0.0521 µM | HCT-116 < 0.005 µM

COc1nc2[nH]ccc2c(=O)[nH]1
inactive: UACC-257 > 100 µM | SK-MEL-28 > 100 µM | U-251 > 100 µM | SK-MEL-2 > 100 µM | SF-295 > 100 µM | RPMI-8226 > 100 µM | SNB-75 > 100 µM | COLO 205 > 100 µM | CAKI-1 > 100 µM | TK-10 > 100 µM | SW-620 > 100 µM | SF-268 > 100 µM | A498 > 100 µM | MOLT-4 > 100 µM | SNB-19 > 100 µM | LOX IMVI > 100 µM | NCI-H23 > 100 µM | HCT-116 > 100 µM

FC(F)(F)C(C1=NC(C(F)(F)F)(C(F)(F)F)N=C(N2CCOCC2)O1)C(F)(F)F
inactive: UACC-257 20.8 µM | NCI/ADR-RES 16.6 µM | SK-MEL-28 20.1 µM | U-251 19.9 µM | SK-MEL-2 22.2 µM | SF-295 16 µM | RPMI-8226 20.8 µM | SNB-75 29.5 µM | COLO 205 14.3 µM | CAKI-1 23.2 µM | TK-10 28.7 µM | SW-620 14.2 µM | SF-268 36.1 µM | MOLT-4 28.9 µM | UACC-62 13.5 µM | SNB-19 25.9 µM | LOX IMVI 17.8 µM | NCI-H23 > 10 µM | HCT-116 27.7 µM

COc1ccc(C2COc3cc(O)c(O)cc3C2)cc1 (stereo not given)
inactive: UACC-257 27.4 µM | NCI/ADR-RES 11 µM | SK-MEL-28 10.7 µM | U-251 13.7 µM | SK-MEL-2 54.6 µM | SF-295 37.6 µM | RPMI-8226 7.45 µM | SNB-75 43.8 µM | COLO 205 10.6 µM | CAKI-1 13.7 µM | SW-620 9.06 µM | SF-268 14.8 µM | A498 9.84 µM | MOLT-4 6.58 µM | UACC-62 14.1 µM | SNB-19 24.8 µM | LOX IMVI 32.3 µM | NCI-H23 17.7 µM | HCT-116 11.3 µM

CC(=O)OCC1OC(n2c(-c3ccc(Cl)cc3)cc(-c3ccccc3)c(C#N)c2=S)C(OC(C)=O)C(OC(C)=O)C1OC(C)=O (stereo not given)
inactive: NCI/ADR-RES 6.71 µM | SK-MEL-28 6.5 µM | U-251 8.67 µM | SF-295 11.5 µM | RPMI-8226 8.91 µM | SNB-75 8.13 µM | COLO 205 13.2 µM | CAKI-1 13.9 µM | TK-10 27.4 µM | SW-620 3.3 µM | SF-268 10.8 µM | MOLT-4 12.8 µM | UACC-62 3.85 µM | SNB-19 8.53 µM | LOX IMVI 4.29 µM | NCI-H23 14.2 µM | HCT-116 6.11 µM

COc1ccc(CCCC(=O)O)c(C)c1
inactive: UACC-257 73.5 µM | NCI/ADR-RES > 100 µM | SK-MEL-28 91.4 µM | U-251 20.8 µM | SK-MEL-2 39 µM | SF-295 38.8 µM | CAKI-1 17.8 µM | TK-10 81.8 µM | SW-620 59.2 µM | SF-268 27.4 µM | A498 14.3 µM | MOLT-4 15.7 µM | UACC-62 36.8 µM | SNB-19 40.1 µM | LOX IMVI 30.1 µM | NCI-H23 53.3 µM | HCT-116 > 100 µM

c1ccc(CSC(SCc2ccccc2)c2cccc3ccccc23)cc1
inactive: NCI/ADR-RES > 10 µM | SK-MEL-28 > 10 µM | U-251 > 10 µM | SK-MEL-2 > 10 µM | SF-295 8.85 µM | RPMI-8226 9.79 µM | SNB-75 > 10 µM | COLO 205 > 10 µM | CAKI-1 > 10 µM | TK-10 > 10 µM | SW-620 > 10 µM | SF-268 > 10 µM | A498 > 10 µM | MOLT-4 > 10 µM | UACC-62 > 10 µM | SNB-19 > 10 µM | NCI-H23 3.82 µM | HCT-116 > 10 µM

CCN(CC)CCCC(C)Nc1cc(-c2ccccc2)nc2cc(OC)ccc12 (stereo not given)
inactive: UACC-257 17.4 µM | SK-MEL-28 6.22 µM | U-251 4.22 µM | SK-MEL-2 12.6 µM | SF-295 8.79 µM | RPMI-8226 2.07 µM | SNB-75 11.8 µM | COLO 205 2.91 µM | SF-268 12.8 µM | A498 5.61 µM | MOLT-4 2.14 µM | UACC-62 17.6 µM | SNB-19 > 10 µM | NCI-H23 15.4 µM | HCT-116 2.84 µM

N#CC1(CCCI)CCCC1
inactive: UACC-257 22.6 µM | SK-MEL-28 16.5 µM | U-251 13.4 µM | SK-MEL-2 15.9 µM | SF-295 29.4 µM | SNB-75 1.53 µM | COLO 205 27.8 µM | TK-10 41.9 µM | SW-620 10.7 µM | SF-268 12.6 µM | A498 35.9 µM | MOLT-4 13.8 µM | UACC-62 11 µM | SNB-19 15.8 µM | LOX IMVI 3.76 µM | NCI-H23 9.79 µM | HCT-116 4.18 µM

Cc1cc(N(CCC#N)S(=O)(=O)c2ccccc2)ccc1/C=N\c1cccc(C(=O)O)c1
inactive: UACC-257 > 100 µM | SK-MEL-28 > 100 µM | U-251 > 100 µM | SK-MEL-2 > 100 µM | SF-295 > 100 µM | RPMI-8226 > 100 µM | SNB-75 35.6 µM | COLO 205 > 100 µM | CAKI-1 > 100 µM | TK-10 > 100 µM | SW-620 > 100 µM | SF-268 60.1 µM | MOLT-4 > 100 µM | UACC-62 > 100 µM | SNB-19 > 100 µM | NCI-H23 > 100 µM | HCT-116 > 100 µM

CC1(C)CCc2c(ccc(C(=O)/C=C/c3ccc(O)cc3)c2O)O1 [DORSMANNIN A]
active: SK-MEL-28 0.201 µM
inactive: UACC-257 12.5 µM | NCI/ADR-RES 11.4 µM | U-251 10.4 µM | SK-MEL-2 11.9 µM | SF-295 12.4 µM | RPMI-8226 8.39 µM | COLO 205 10.9 µM | CAKI-1 5.28 µM | TK-10 10.3 µM | SW-620 13 µM | SF-268 12.9 µM | A498 13.7 µM | MOLT-4 16.1 µM | UACC-62 10 µM | SNB-19 13.9 µM | LOX IMVI 10.2 µM | NCI-H23 12.5 µM | HCT-116 10.3 µM

O=C(NC(COC(=O)C(Cc1ccccc1)NC(=O)c1ccccc1)Cc1ccccc1)c1ccccc1 (stereo not given)
inactive: UACC-257 > 50 µM | SK-MEL-28 > 50 µM | U-251 35 µM | SK-MEL-2 > 50 µM | SF-295 32.7 µM | RPMI-8226 > 50 µM | SNB-75 > 50 µM | TK-10 > 50 µM | SW-620 > 50 µM | SF-268 > 50 µM | A498 > 50 µM | MOLT-4 > 50 µM | UACC-62 > 50 µM | SNB-19 25.6 µM | NCI-H23 > 50 µM

CCOC(=O)Nc1ccc(S(=O)(=O)NCCCl)cc1.CCOC(=O)Nc1ccc(S(=O)(=O)NCCCl)cc1.O=C(O)c1ccc(/N=N/Cl)cc1O
inactive: UACC-257 > 100 µM | SK-MEL-28 > 100 µM | U-251 > 100 µM | SK-MEL-2 > 100 µM | SF-295 > 100 µM | SNB-75 > 100 µM | COLO 205 > 100 µM | CAKI-1 > 100 µM | TK-10 > 100 µM | SW-620 > 100 µM | SF-268 > 100 µM | A498 > 100 µM | MOLT-4 > 100 µM | UACC-62 > 100 µM | NCI-H23 > 100 µM

Cc1ccc([N+](=O)[O-])cc1NC(=O)C(=O)C(C(=O)c1ccccc1F)C1OC(=O)c2ccccc21 (stereo not given)
inactive: UACC-257 > 100 µM | SK-MEL-28 36.4 µM | U-251 18.1 µM | SK-MEL-2 25.9 µM | SF-295 42.6 µM | RPMI-8226 29.4 µM | SNB-75 38.5 µM | COLO 205 38.9 µM | CAKI-1 53.8 µM | TK-10 > 100 µM | SW-620 35.1 µM | SF-268 25.5 µM | A498 98.4 µM | MOLT-4 36.1 µM | UACC-62 33.7 µM | SNB-19 15.3 µM | LOX IMVI 27.5 µM | NCI-H23 38.5 µM | HCT-116 31.5 µM
